Laboratory results from US20200339691A1, “PROTEINACEOUS MOLECULES AND USES THEREFOR” (priority 2018, published 2020).
Where a SMILES comes first, the peptide text is derived from it. The star is where a group is joined. Myristoyl = CCCCCCCCCCCCCC(=O)*

What was measured:
[1] = tested on: CD44^hiCD24^lo CSCs in MDA-MB-231 cells; test: FACS analysis of CD44^hiCD24^lo cancer stem cells in MDA-MB-231 cells treated with P1 analogues; type: cell-based, human; details: 50 μM peptide, 48 hours; for CD44^hiCD24^lo CSCs (%) / COI, Live Single CD44^hiCD24^lo CSCs (Cell Count): n = 1; for Average Inhibition of CSCs (%) / CD44^hiCD24^lo CSCs (%) Repeat 1 / CD44^hiCD24^lo CSCs (%) Repeat 2 / CD44^hiCD24^lo CSCs (%) Repeat 3: n = 3
Procedure: Analogues of P1 (Table 6) were designed and synthesized in accordance with the procedure of Example 5. The ability of these analogues to inhibit cancer stem cells was determined using FACS analysis on MDA-MB-231 cells, which constitutively contain approximately 90% CD44^hiCD24^lo cancer stem cells, treated with the peptides.
(§1) Non-adherent cells were removed during the washing steps.

[2] = tested on: MDA-MB-231 cells; type: cell-based, human; details: 50 μM peptide, 48 hours, n = 1;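 for COI, Live Single Cells (Cell Count): live means Hoechst-negative events among single cells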
From the text: as §1

Structure (SMILES) | Inhibition of CSCs (%) Repeat 1 [1] | Inhibition of CSCs (%) Repeat 2 [1] | Inhibition of CSCs (%) Repeat 3 [1] | CD44^hiCD24^lo CSCs (%) [1] | COI, Live Single CD44^hiCD24^lo CSCs (Cell Count) [1] | Average Inhibition of CSCs (%) [1] | CD44^hiCD24^lo CSCs (%) Repeat 1 [1] | CD44^hiCD24^lo CSCs (%) Repeat 2 [1] | CD44^hiCD24^lo CSCs (%) Repeat 3 [1] | COI (Cell Count) [2] | COI, Live Single Cells (Cell Count) [2] | COI, Single (Cell Count) [2] | Total Cell Count [2]
CCCCCCCCCCCCCC(=O)N[C@H](C(=O)N[C@@H](Cc1ccccc1)C(=O)N[C@H](C(=O)N[C@@H](Cc1ccccc1)C(=O)N[C@@H](CCCNC(=N)N)C(=O)N[C@@H](CC(C)C)C(=O)N[C@@H](CCCNC(=N)N)C(=O)N[C@@H](CCCCN)C(=O)NCC(=O)N[C@@H](CCCNC(=N)N)C(=O)N[C@@H](CCSC)C(=O)N[C@@H](CCSC)C(=O)N[C@@H](CC(=O)O)C(=O)N[C@@H](C)C(=O)N[C@@H](CCCCN)C(=O)N[C@@H](CCCCN)C(N)=O)[C@@H](C)CC)[C@@H](C)O [Peptide 2815315, Myristoyl-TFIFRLRKGRMMDAKK-NH2] (Myristoyl-TFIFRLRKGRMMDAKK-NH2) | 86.74% | 82.99% | 83.97% | 18.75% | 3 | 84.57% | 11.89% | 15.26% | 14.39% | 51 | 16 | 41 | 12122
CCCCCCCCCCCCCC(=O)N[C@H](C(=O)N[C@@H](Cc1ccccc1)C(=O)N[C@H](C(=O)N[C@@H](Cc1ccccc1)C(=O)N[C@@H](CCCNC(=N)N)C(=O)N[C@@H](CC(C)C)C(=O)N[C@@H](CCCNC(=N)N)C(=O)N[C@@H](CCCCN)C(=O)NCC(=O)N[C@@H](CCCNC(=N)N)C(=O)N[C@@H](CCSC)C(=O)N[C@@H](CCSC)C(=O)N[C@@H](CC(=O)O)C(=O)N[C@H](C(=O)N[C@@H](C)C(=O)N[C@@H](CCCCN)C(N)=O)C(C)C)[C@@H](C)CC)[C@@H](C)O [Peptide 2815316, Myristoyl-TFIFRLRKGRMMDVAK-NH2] (Myristoyl-TFIFRLRKGRMMDVAK-NH2) | 40.88% | 45.01% | 45.00% | 50.00% | 2 | 43.63% | 52.99% | 49.33% | 49.35% | 22 | 4 | 20 | 10777
CCCCCCCCCCCCCC(=O)N[C@H](C(=O)N[C@@H](Cc1ccccc1)C(=O)N[C@H](C(=O)N[C@@H](Cc1ccccc1)C(=O)N[C@@H](CCCNC(=N)N)C(=O)N[C@@H](CC(C)C)C(=O)N[C@@H](CCCNC(=N)N)C(=O)N[C@@H](CCCCN)C(=O)NCC(=O)N[C@@H](CCCNC(=N)N)C(=O)N[C@@H](CCSC)C(=O)N[C@@H](CCSC)C(=O)N[C@@H](CC(=O)O)C(=O)N[C@H](C(=O)N[C@@H](CCCCN)C(=O)N[C@@H](C)C(N)=O)C(C)C)[C@@H](C)CC)[C@@H](C)O [Peptide 2815317, Myristoyl-TFIFRLRKGRMMDVKA-NH2] (Myristoyl-TFIFRLRKGRMMDVKA-NH2) | 47.53% | 46.46% | 63.38% | 40.91% | 18 | 52.46% | 47.02% | 48.03% | 32.86% | 88 | 44 | 79 | 8821
CCCCCCCCCCCCCC(=O)N[C@H](C(=O)N[C@@H](Cc1ccccc1)C(=O)N[C@H](C(=O)N[C@@H](Cc1ccccc1)C(=O)N[C@@H](CCCNC(=N)N)C(=O)N[C@@H](CC(C)C)C(=O)N[C@@H](CCCNC(=N)N)C(=O)N[C@@H](CCCCN)C(=O)NCC(=O)N[C@@H](C)C(=O)N[C@@H](CCSC)C(=O)N[C@@H](CCSC)C(=O)N[C@@H](CC(=O)O)C(=O)N[C@H](C(=O)N[C@@H](CCCCN)C(=O)N[C@@H](CCCCN)C(N)=O)C(C)C)[C@@H](C)CC)[C@@H](C)O [Peptide 2815318, Myristoyl-TFIFRLRKGAMMDVKK-NH2] (Myristoyl-TFIFRLRKGAMMDVKK-NH2) | 54.80% | 54.73% | 55.59% | 53.03% | 70 | 55.04% | 40.51% | 40.61% | 39.86% | 183 | 132 | 142 | 3480
CCCCCCCCCCCCCC(=O)N[C@@H](C)C(=O)N[C@H](C(=O)N[C@@H](Cc1ccccc1)C(=O)N[C@H](C(=O)N[C@@H](Cc1ccccc1)C(=O)N[C@@H](CCCNC(=N)N)C(=O)N[C@@H](CC(C)C)C(=O)N[C@@H](CCCNC(=N)N)C(=O)N[C@@H](CCCCN)C(=O)NCC(=O)N[C@@H](CCCNC(=N)N)C(=O)N[C@@H](CCSC)C(=O)N[C@@H](CCSC)C(=O)N[C@@H](CC(=O)O)C(=O)N[C@H](C(=O)N[C@@H](CCCCN)C(=O)N[C@@H](CCCCN)C(N)=O)C(C)C)[C@@H](C)CC)[C@@H](C)O [Peptide 2853801, Myristoyl-ATFIFRLRKGRMMDVKK-NH2] (Myristoyl-ATFIFRLRKGRMMDVKK-NH2) | 93.01% | 94.77% | 94.78% | 5.39% | 102 | 94.19% | 6.27% | 4.69% | 4.68% | 2375 | 1894 | 2024 | 8558
CCCCCCCCCCCCCC(=O)N[C@@H](CCC(=O)O)C(=O)N[C@H](C(=O)N[C@@H](Cc1ccccc1)C(=O)N[C@H](C(=O)N[C@@H](Cc1ccccc1)C(=O)N[C@@H](CCCNC(=N)N)C(=O)N[C@@H](CC(C)C)C(=O)N[C@@H](CCCNC(=N)N)C(=O)N[C@@H](CCCCN)C(=O)NCC(=O)N[C@@H](CCCNC(=N)N)C(=O)N[C@@H](CCSC)C(=O)N[C@@H](CCSC)C(=O)N[C@@H](CC(=O)O)C(=O)N[C@H](C(=O)N[C@@H](CCCCN)C(=O)N[C@@H](CCCCN)C(N)=O)C(C)C)[C@@H](C)CC)[C@@H](C)O [Peptide 2853802, Myristoyl-ETFIFRLRKGRMMDVKK-NH2] (Myristoyl-ETFIFRLRKGRMMDVKK-NH2) | 42.88% | 46.07% | 49.94% | 48.71% | 3133 | 46.30% | 51.19% | 48.38% | 44.92% | 7612 | 6432 | 7095 | 9672
